ChEMBL document CHEMBL1201862, “PubChem BioAssay data set” (2004)
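A five-concentration, 48-hour dose response in 96-well plates underlies each endpoint, interpolated linearly between surrounding concentrations. Here, GI50 denotes the concentration required for 50% inhibition of growth.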 Calls of active or inactive are those of the source. Cut-off read from the data, not from the text of the source: active = GI50 up to about 1.1 µM and inactive = higher.

Experiments:
Assay in all cases: DTP human tumour cell line panel, 48 h
[1] = tested on: SK-MEL-5
[2] = tested on: SNB-75
[3] = tested on: SF-295
[4] = tested on: SK-OV-3
[5] = tested on: SN12C
[6] = tested on: T47D
[7] = tested on: MDA-MB-435
[8] = tested on: NCI-H460
[9] = tested on: OVCAR-4
[10] = tested on: NCI-H23
[11] = tested on: M14
[12] = tested on: HOP-62
[13] = tested on: HL-60
[14] = tested on: HOP-92
[15] = tested on: NCI-H226
[16] = tested on: K562
[17] = tested on: A549
[18] = tested on: CCRF-CEM
[19] = tested on: HT-29
[20] = tested on: Hs-578T
[21] = tested on: U-251
[22] = tested on: SNB-19
[23] = tested on: OVCAR-3
[24] = tested on: HCT-116
[25] = tested on: SR
[26] = tested on: OVCAR-5
[27] = tested on: OVCAR-8
[28] = tested on: RXF 393
[29] = tested on: UACC-257
[30] = tested on: SW-620
[31] = tested on: LOX IMVI
[32] = tested on: RPMI-8226
[33] = tested on: MDA-MB-231
[34] = tested on: HCT-15
[35] = tested on: NCI/ADR-RES
[36] = tested on: DU-145
[37] = tested on: Malme-3M
[38] = tested on: MOLT-4
[39] = tested on: NCI-H522
[40] = tested on: HCC 2998
[41] = tested on: BT-549
[42] = tested on: SK-MEL-28
[43] = tested on: IGROV-1
[44] = tested on: SF-268
[45] = tested on: 786-0
[46] = tested on: PC-3
[47] = tested on: UACC-62
[48] = tested on: SK-MEL-2
[49] = tested on: KM12
[50] = tested on: COLO 205
[51] = tested on: SF-539
[52] = tested on: EKVX
[53] = tested on: MDA-N
[54] = tested on: MCF7
[55] = tested on: TK-10
[56] = tested on: CAKI-1
[57] = tested on: ACHN
[58] = tested on: UO-31
[59] = tested on: A498

In the case of `CC(C)CNC(=O)c1c(NC(=O)c2ccccc2)sc2[nH]c(=O)n(-c3ccccc3)c(=O)c12`, the GI50 [1] is reported as > 93.1 µM (inactive), the GI50 [2] is reported as 17.8 µM (inactive) and the GI50 [3] is reported as 19.6 µM (inactive). The GI50 [4] was 23.8 µM (inactive), the GI50 [5] was > 100 µM (inactive) and the GI50 [6] was 89.3 µM (inactive). The GI50 [7] was > 100 µM (inactive), the GI50 [8] was > 100 µM (inactive) and the GI50 [9] was > 64 µM (inactive). For the same compound, the GI50 [10] was 80.5 µM (inactive), the GI50 [11] was 91.2 µM (inactive) and the GI50 [12] was 15.3 µM (inactive). The GI50 [13] was 68.9 µM (inactive), the GI50 [14] was 5.09 µM (inactive) and the GI50 [15] was > 82.6 µM (inactive). The GI50 [16] was 31 µM (inactive), the GI50 [17] was > 100 µM (inactive) and the GI50 [18] was 40.5 µM (inactive). The GI50 [19] was > 100 µM (inactive), the GI50 [20] was 14.3 µM (inactive) and the GI50 [21] was 31.3 µM (inactive). The GI50 [22] was 24 µM (inactive), the GI50 [23] was > 100 µM (inactive) and the GI50 [24] was > 86.3 µM (inactive). For the same compound, the GI50 [25] was 49.4 µM (inactive), the GI50 [26] was > 100 µM (inactive) and the GI50 [27] was > 100 µM (inactive). The GI50 [28] was 16.6 µM (inactive), the GI50 [29] was > 100 µM (inactive) and the GI50 [30] was > 100 µM (inactive). The GI50 [31] was > 100 µM (inactive), the GI50 [32] was > 100 µM (inactive) and the GI50 [33] was 23.2 µM (inactive). For the same compound, the GI50 [34] was greater than 100 µM, the GI50 [35] was > 97.5 µM (inactive) and the GI50 [36] was > 100 µM (inactive). For the same compound, the GI50 [37] was > 82.8 µM (inactive), the GI50 [38] was 51.3 µM (inactive) and the GI50 [39] was 43.7 µM (inactive). The GI50 [40] was > 100 µM (inactive), the GI50 [41] was 26.4 µM (inactive) and the GI50 [42] was > 100 µM (inactive). For the same compound, the GI50 [43] was 74.3 µM (inactive), the GI50 [44] was 37.1 µM (inactive) and the GI50 [45] was 16.8 µM (inactive). For the same compound, the GI50 [46] was > 100 µM (inactive), the GI50 [47] was 64.3 µM (inactive) and the GI50 [48] was 27.5 µM (inactive). The GI50 [49] was > 100 µM (inactive), the GI50 [50] was > 100 µM (inactive) and the GI50 [51] was 46 µM (inactive). The GI50 [52] was 70.6 µM (inactive), the GI50 [53] was > 100 µM (inactive) and the GI50 [54] was > 100 µM (inactive). The GI50 [55] was 37.9 µM (inactive), the GI50 [56] was > 42.1 µM (inactive) and the GI50 [57] was 13.8 µM (inactive). For the same compound, the GI50 [58] was > 71.4 µM (inactive) and the GI50 [59] was 27.5 µM (inactive).

For `CN(C)CC1CCC/C(=C\c2ccc(OC(=O)/C=C/c3ccc(Cl)c(Cl)c3)cc2)C1=O` (stereo unspecified), the GI50 [1] was 4.09 µM (inactive), the GI50 [2] was 18.4 µM (inactive) and the GI50 [3] was 7.11 µM (inactive). For the same compound, the GI50 [4] was 37.3 µM (inactive), the GI50 [5] was 2.39 µM (inactive) and the GI50 [6] was 2.44 µM (inactive). For the same compound, the GI50 [7] was 6.89 µM (inactive), the GI50 [8] was 3.86 µM (inactive) and the GI50 [9] was 22.9 µM (inactive). The GI50 [10] was 3.77 µM (inactive), the GI50 [11] was 5.68 µM (inactive) and the GI50 [12] was 2.75 µM (inactive). The GI50 [13] was 0.796 µM (active), the GI50 [14] was 1.79 µM (inactive) and the GI50 [15] was 1.71 µM (inactive). The GI50 [16] was 1.94 µM (inactive), the GI50 [17] was 5.86 µM (inactive) and the GI50 [18] was 0.597 µM (active). The GI50 [19] was 2.11 µM (inactive), the GI50 [20] was 4.21 µM (inactive) and the GI50 [21] was 6.17 µM (inactive). The GI50 [22] was 10.5 µM (inactive), the GI50 [23] was 3.48 µM (inactive) and the GI50 [24] was 3.49 µM (inactive). For the same compound, the GI50 [25] was 1.21 µM (inactive), the GI50 [26] was 20.5 µM (inactive) and the GI50 [27] was 3.92 µM (inactive). The GI50 [28] was 1.88 µM (inactive), the GI50 [29] was 9.91 µM (inactive) and the GI50 [30] was 2.75 µM (inactive). For the same compound, the GI50 [31] was 1.86 µM (inactive), the GI50 [32] was 0.164 µM (active) and the GI50 [33] was 3.71 µM (inactive). The GI50 [34] was 2.45 µM, the GI50 [35] was 2.92 µM (inactive) and the GI50 [36] was 8.97 µM (inactive). For the same compound, the GI50 [37] was 5.4 µM (inactive), the GI50 [38] was 1.66 µM (inactive) and the GI50 [39] was 3.37 µM (inactive). The GI50 [40] was 2.92 µM (inactive), the GI50 [41] was 3.42 µM (inactive) and the GI50 [42] was 7.8 µM (inactive). For the same compound, the GI50 [43] was 1.47 µM (inactive), the GI50 [44] was 9.29 µM (inactive) and the GI50 [45] was 1.83 µM (inactive). The GI50 [46] was 3.33 µM (inactive), the GI50 [47] was 12.3 µM (inactive) and the GI50 [48] was 15.9 µM (inactive). The GI50 [49] was 1.61 µM (inactive), the GI50 [50] was 1.83 µM (inactive) and the GI50 [51] was 2.59 µM (inactive). The GI50 [52] was 5.9 µM (inactive), the GI50 [53] was 3.37 µM (inactive) and the GI50 [54] was 0.857 µM (active). The GI50 [55] was 1.76 µM (inactive), the GI50 [56] was 2.26 µM (inactive) and the GI50 [57] was 1.82 µM (inactive). The GI50 [58] was 2.77 µM (inactive) and the GI50 [59] was 7.89 µM (inactive).

With `C/C(=N\NC(N)=S)c1nc2cccnc2[nH]1` the GI50 [1] was 47.3 µM (inactive), the GI50 [2] was > 100 µM (inactive) and the GI50 [3] was 84.9 µM (inactive). For the same compound, the GI50 [4] was 30.2 µM (inactive), the GI50 [5] was > 100 µM (inactive) and the GI50 [6] was 45.1 µM (inactive). For the same compound, the GI50 [7] was 52.4 µM (inactive), the GI50 [8] was 45.7 µM (inactive) and the GI50 [9] was 25.6 µM (inactive). For the same compound, the GI50 [11] was 63.1 µM (inactive), the GI50 [12] was 67.3 µM (inactive) and the GI50 [13] was 32.6 µM (inactive). For the same compound, the GI50 [14] was 98.2 µM (inactive), the GI50 [15] was > 56 µM (inactive) and the GI50 [16] was 71 µM (inactive). For the same compound, the GI50 [17] was 57.5 µM (inactive), the GI50 [18] was 31.1 µM (inactive) and the GI50 [19] was 41.3 µM (inactive). For the same compound, the GI50 [20] was > 100 µM (inactive), the GI50 [21] was 40.8 µM (inactive) and the GI50 [22] was > 76.7 µM (inactive). The GI50 [23] was 31.8 µM (inactive), the GI50 [24] was 54 µM (inactive) and the GI50 [25] was 45.5 µM (inactive). The GI50 [26] was 47.1 µM (inactive), the GI50 [27] was > 67 µM (inactive) and the GI50 [28] was > 100 µM (inactive). For the same compound, the GI50 [29] was > 88.5 µM (inactive), the GI50 [30] was 56.8 µM (inactive) and the GI50 [31] was 73.5 µM (inactive). The GI50 [32] was > 96.6 µM (inactive), the GI50 [33] was > 70.1 µM (inactive) and the GI50 [34] was 53.6 µM. For the same compound, the GI50 [35] was 38.5 µM (inactive), the GI50 [36] was 63.7 µM (inactive) and the GI50 [37] was > 92.9 µM (inactive). The GI50 [38] was 34.8 µM (inactive), the GI50 [39] was > 68.5 µM (inactive) and the GI50 [40] was > 66.1 µM (inactive). The GI50 [41] was 24.9 µM (inactive), the GI50 [42] was > 88.9 µM (inactive) and the GI50 [43] was 82 µM (inactive). The GI50 [44] was 57.7 µM (inactive), the GI50 [45] was 51.8 µM (inactive) and the GI50 [46] was 81.3 µM (inactive). The GI50 [47] was 47.2 µM (inactive), the GI50 [48] was > 100 µM (inactive) and the GI50 [49] was 67.5 µM (inactive). The GI50 [50] was 38.8 µM (inactive), the GI50 [51] was 58.9 µM (inactive) and the GI50 [52] was 50 µM (inactive). For the same compound, the GI50 [53] was > 100 µM (inactive), the GI50 [54] was 26.8 µM (inactive) and the GI50 [55] was > 80.4 µM (inactive). The GI50 [56] was 33.5 µM (inactive), the GI50 [57] was 43 µM (inactive) and the GI50 [58] was 24.9 µM (inactive). For the same compound, the GI50 [59] was > 100 µM (inactive).
